Laboratory results as given in patent US20230323420A1, “PERFUSION MEDIUM” (Boehringer Ingelheim International GmbH, priority 2017, published 2023).

Key:
CHO cultures = conditions: cited from earlier work
[1] = system: Chinese hamster ovary (CHO) DG44 cells expressing a recombinant monoclonal IgG1 antibody; test: Deep well plate model of perfusion (small scale culture): viable cell density, viability, titer; assay type: cell-based
Method: Axygen 24 well pre-sterilized deep-well plates (Neta Scientific Inc, Hainesport, NJ) were used as a scale-down model of perfusion. A starting cell density of 20×10^6 cells/mL (3 mL per well) was targeted to simulate the high cell density growth phase of perfusion. Chinese hamster ovary (CHO) DG44 cells expressing a recombinant monoclonal IgG1 antibody were grown in proprietary chemically defined, serum-free perfusion media at 33° C. with 5% CO2, 80% humidity, and 200 rpm shaking speed in an incubator with a 5.0 cm orbit diameter for 4 or 8 days. A 0.1 mL sample was taken for cell count daily prior to media exchange. Medium exchanges were performed daily by centrifuging the plate at 1200 rpm for 5 minutes, removing 2 mL supernatant, and resuspending cells in 2.1 mL fresh, pre-warmed media at 37° C. (in early days, this equates to a ⅔ volume exchange, whereas in later days the cell pellet grows such that 2 mL is nearly the entire liquid volume, equating to a 1 VVD exchange). Supernatant was saved to perform process analytics.
Retinyl acetate was tested in concentrations ranging from 5 μM to 600 μM in proprietary chemically defined, serum-free perfusion medium with 230 μM or 3.1 mM ferric citrate. A 152 mM stock solution of retinyl acetate was prepared by dissolving 50 mg/mL retinyl acetate powder to prepare a 152 mM stock (Sigma-Aldrich; CAS 127-47-9) in absolute ethanol, or 75 mg/mL retinyl acetate for 228 mM stock, for each experimental run; after thorough mixing, the solutions were sterile-filtered with 0.22 μm Steriflips (EMD Millipore). This stock was diluted down further with perfusion medium to provide a working stock. Media aliquot concentrations were 30% higher than the targeted final concentration in each treatment to compensate for residual media left in the well and cell pellet volume. The media were prepared in proprietary chemically defined, serum-free media (either 230 μM or 3.1 mM Fe background) as shown in Table 2. Control condition had no retinyl acetate supplement; ethanol control added the solvent with no retinyl acetate at the level equivalent to the greatest amount for each experiment. These media aliquots were used in the daily media exchanges as described above.
Viability and viable cell density were measured by Vi-CELL Cell Counter using the Trypan blue dye exclusion method (Beckman Coulter Life Sciences, Indianapolis, IN). Titer, metabolites, and lactate dehydrogenase (LDH) levels were measured using a Cedex BioHT (Roche Diagnostics GmbH, Mannheim, Germany). These titer measurements had been previously verified to be in agreement with in house HPLC Protein A methods. Osmolality was measured with a 2020 Multi-Sample Micro Osmometer (Advanced Instruments, Inc, Norwood, MA) based on freezing point depression.
A small scale cell culture using CHO DG44 cells expressing a recombinant monoclonal IgG1 antibody was treated with ferric citrate and retinyl acetate at different concentrations to assess the effect on cell viability, essentially as described for the small scale culture in Example 1.

[2] = system: Chinese hamster ovary (CHO) DG44 cells; test: Cell cycle analysis of deep well culture (propidium iodide, flow cytometry); assay type: cell-based; conditions: 400 μM retinyl acetate, 3.1 mM ferric citrate, cultivation for 7 days; control cells 62.6%
Method: Cell cycle analysis was performed on days 1 and 7 of deep well culture. Cells were grown in medium containing 3.1 mM ferric citrate and 400 μM retinyl acetate or control medium and fixed on days 1 and 7 by a wash in cold PBS before suspension in 70% ethanol. Cells were stored at −20° C. until analysis. 1e5 cells per sample were stained with propidium iodide with RNase (BD Biosciences) for DNA content and analyzed by flow cytometry on a Guava easyCyte flow cytometer (EMD Millipore).

[3] = system: CHO-DG44 cells expressing a recombinant monoclonal IgG1 antibody; test: High density perfusion culture in 2 L bioreactors, 1.6 mM ferric citrate (Example 2); assay type: cell-based, Chinese hamster; conditions: for decrease of cell bleed rate: 1.6 mM ferric citrate background media, over 4 days (FIG. 5B)
Method: A high density perfusion culture of CHO-DG44 cells expressing a recombinant monoclonal IgG1 antibody was treated with high iron (Fe) and vitamin A (retinyl acetate) to assess the effect on cell proliferation, and by extension, the cell bleed. A bench-scale experiment was performed in three 2 L perfusion bioreactors with 0.2 μm PES hollow fibers (Spectrum Labs) on alternating tangential flow (ATF) at 0.8 L/min flow rate. Bioreactors were maintained at: 37° C., 60% dissolved oxygen, 348 RPM agitation, and a target pH of 7.0 (pH target was not always achieved). A CHO DG44 cell line expressing a monoclonal antibody was inoculated into the bioreactors at approximately 1e6 cells/mL in proprietary chemically defined, serum-free inoculation medium at a 1:4 dilution of conditioned to fresh inoculation media. This culture was grown in batch mode (no flow in or out) for 2 days, at which time perfusion was started with BI's perfusion media (manufactured by SAFC). […] During the growth phase (d0-d10 post-inoculation) there was no cell bleed, allowing the viable cell density (VCD) to reach desired level. On day 8, ferric citrate (Sigma-Aldrich; CAS 3522-50-7) was added to the perfusion medium at a concentration of 1.6 mM, targeting a pH of 6.9. Once optimal cell density was reached on day 10, cell bleed was initiated to maintain constant VCD (steady state). The calculation governing the cell bleed rate was based on maintaining the Incyte biomass capacitance probe value (Hamilton) which corresponded to the target VCD.
After steady state was established for several days, retinyl acetate (Sigma-Aldrich, CAS 127-47-9) was introduced to two of the bioreactors, with one bioreactor acting as control with no retinyl acetate (Table 4). Retinyl acetate was dissolved in absolute ethanol and sterile-filtered with a 0.2 μm filter to make a sterile stock solution of 152 mM before addition to media bags for final concentrations of 50 μM, 100 μM, 150 μM, or 200 μM retinyl acetate (in four respective bags). Each treatment bioreactor then received retinyl acetate at a first concentration between day 15 and 20 (50 μM or 100 μM) and at a second concentration between days 20-24 (150 or 200 μM) as shown in Table 4. On day 15 and 20 for each treatment, the bag of new treatment media was attached to the media inlet line of the bioreactors. […]
Samples were taken near-daily for: VCD and viability (Vi-Cell, Beckman-Coulter), osmolality (Advanced Instrument Inc), pH, CO2, and O2 (RapidLab 1240 BGA, Siemens), and metabolite readings (Cedex BioHT, Roche). […]

CHO-DG44 cells = test: Cell cycle analysis of perfusion bioreactor culture (Example 2); assay type: cell-based, Chinese hamster; conditions: 150 μM and 200 μM retinyl acetate, 1.6 mM ferric citrate, compared to control, data not shown
Method: Samples were taken near-daily for: VCD and viability (Vi-Cell, Beckman-Coulter), osmolality (Advanced Instrument Inc), pH, CO2, and O2 (RapidLab 1240 BGA, Siemens), and metabolite readings (Cedex BioHT, Roche). DeltaV was used to control and Finesse TruBio software was used to record and monitor cell bleed, permeate, and media pump rates. Cell samples were taken throughout the experiment and stored at −20° C. in 70% EtOH after treatment with Accumax (Innovative Cell Technologies) for later cell cycle analysis using propidium iodide stain with RNase (BD Biosciences) on a Guava easyCyte flow cytometer (EMD Millipore).

[4] = system: CHO DG44 cells expressing a recombinant monoclonal IgG1 antibody; test: High density perfusion culture in bioreactors, 350 μM ferric citrate (Example 3); assay type: cell-based, Chinese hamster
Method: A high density perfusion culture of CHO DG44 cells expressing a recombinant monoclonal IgG1 antibody was treated with low iron (Fe) and vitamin A (retinyl acetate) to assess the effect on cell proliferation, and the cell bleed. A bench-scale experiment was performed essentially as described above for Example 2. During the growth phase (d0-d10 post-inoculation) there was no cell bleed, allowing the viable cell density (VCD) to reach desired level. On day 8, ferric citrate (Sigma-Aldrich; CAS 3522-50-7) was added to the perfusion media at a concentration of 350 μM. Once optimal cell density was reached on day 10, cell bleed was initiated to maintain constant VCD (steady state). The calculation governing the cell bleed rate was based on maintaining the Incyte biomass capacitance probe value (Hamilton company) which corresponded to the target VCD.
On day 25 day, retinyl acetate (Sigma-Aldrich, CAS 127-47-9) was introduced to one of the bioreactors, with one bioreactor acting as control with no retinyl acetate. Retinyl acetate was dissolved in absolute ethanol and sterile-filtered with a 0.2 μm filter to make a sterile stock solution of 152 mM before addition to media bags for final concentrations of 100 μM retinyl acetate. Retinyl acetate was then added to the bioreactor on day 25. The bag of new treatment media was attached to the media inlet line of the bioreactors and in order to ensure an instantaneous achievement of target retinyl acetate concentration within the vessels (as opposed to the gradual increase which would occur via introduction through the perfusion medium), a bolus addition of 1.3 mL retinyl acetate stock solution was added directly to the treatment bioreactor via injection through a sterile addition line. Samples were taken and analyzed as explained for Example 2.

[5] = system: Chinese hamster ovary (CHO) DG44 cells expressing a recombinant monoclonal IgG1 antibody; test: Deep well plate model of perfusion (small scale culture): viable cell density, viability, titer; assay type: cell-based; remark: listed apart in the source
[6] = 100 μM retinyl acetate, 350 μM ferric citrate, days 25 to 29 (FIG. 7)

In the case of `CC1=C(/C=C/C(C)=C/C=C/C(C)=C/CO)C(C)(C)CCC1` [retinol], the cytotoxicity (CHO cultures; higher retinol concentrations (above 10 to 50 μM)) is listed as “cytotoxic” and the “growth and protein synthesis” value (CHO cultures; retinol 10 to 50 μM) is listed as “inhibitory effect on growth and protein synthesis”.

In the case of `CC(=O)OC/C=C(C)/C=C/C=C(C)/C=C/C1=C(C)CCCC1(C)C` [retinyl acetate], the viable cell density ([1]; 5 μM to 20 μM retinyl acetate, 3.1 mM ferric citrate (FIG. 1A)) is reported as “reduced the viable cell density in a dose-dependent manner”, the viable cell density ([1]; 40 μM to 100 μM retinyl acetate, 3.1 mM ferric citrate (FIG. 2A)) is reported as “reduced the viable cell density in a dose-dependent manner” and the cell proliferation ([1]; 60 μM to 400 μM retinyl acetate, 3.1 mM ferric citrate, small scale studies) is reported as “inhibit cell proliferation”. The “growth / viable cell density” value ([1]; 200 μM and 400 μM retinyl acetate, 3.1 mM ferric citrate (FIG. 3A)) was “further inhibited growth resulting in a lower viable cell density”, the viable cell density ([1]; 600 μM retinyl acetate, 3.1 mM ferric citrate (FIG. 3A)) was “sharply declined from about day 2” and the “effect on viable cell density” value ([1]; 200-400 μM retinyl acetate, 230 μM ferric citrate, data not shown) was “present, but less pronounced”. The “decrease in growth rate” value ([1]; low ferric citrate (230 μM) versus high ferric citrate (3.1 mM), same retinyl acetate level) was “less pronounced in low ferric citrate”, the “cell specific productivity (qp)” value ([1]; retinyl acetate with 3.1 mM ferric citrate, data not shown) was “unaffected” and the viability ([1]; same retinyl acetate concentrations (200 μM), 3.1 mM ferric citrate (FIG. 8)) was “unaffected”. The “cells in the G0/G1 phase” value [2] was 86%, the bleed flow rate ([3]; 50 μM or 100 μM retinyl acetate, 1.6 mM ferric citrate, days 15 to 20, compared to control (FIG. 5A)) was “reduced in a dose-dependent manner” and the viability ([3]; 50 μM to 200 μM retinyl acetate, 1.6 mM ferric citrate (FIG. 4)) was “not affected”. The “decrease of cell bleed rate” value ([3]; 150 μM vitamin A) was “approximately 45%”, the “decrease of cell bleed rate” value ([3]; 200 μM vitamin A) was “roughly 70%” and the “cell percentage in G0/G1 phase” value (CHO-DG44 cells) was “increase in cell percentage in G0/G1 phase”. The cell bleed [4, 6] was “markedly decreased”, the specific growth rate [4, 6] was “markedly decreased” and the viability ([4]; 100 μM retinyl acetate, 350 μM ferric citrate, versus 350 μM ferric citrate alone (FIG. 6)) was “same high viability”. For the same compound, the “reduction of cell bleed rate” value ([4]; 100 μM vitamin A, 350 μM ferric citrate background media, over 5 days (FIG. 7A)) was “approximately 50%”, the “SGR (specific growth rate)” value ([5]; 2 μM retinyl acetate, data not shown) was “no effect on SGR was observed” and the specific growth rate ([5]; 350 μM ferric citrate and 200 μM retinyl acetate, data not shown) was “decrease in specific growth rate”. The viability ([5]; Chinese hamster, 5 days, 200 μM) was “negative effect on viability after 5 days”.
